Test results published in patent US5320094A (The Johns Hopkins University, priority 1992, dated 1994).
Several values for one entry are separate records, joined by “and”; a condition that tells them apart may be missing. Equal values may be shown once. Read-outs that look alike come from different tables or passages of the source.

Key:
diabetic subjects = details: intranasal bile-salt aerosol; cited from earlier work
rabbits = details: micellar form, intrajejunal administration, reduction in blood glucose; cited from earlier work
[1] = test system: normal subjects and non-insulin dependent diabetic (NIDDM) subjects; assay: Blood glucose response after inhalation of aerosolized insulin; assay type: in vivo, human; details: for Maximum Decrease in Glucose (% of Baseline): fasting
Excerpt: The timing of each aerosol actuation was controlled by a Rosenthal-French dosimeter and lasted for one second. […] The distance between the subject's mouth and the nebulizer reduced aerosol velocity and, thus, impaction of particles in the mouth. Inspiratory flow rate at the time of aerosol inhalation was regulated to less than 30 and, preferably about 17 liters/minute by rate limiting orifices of the type described above. During inhalation, patients inspired from residual volume to total lung capacity.
After the sixth actuation, aerosol was inhaled from the holding chamber through a mouthpiece. […] Each inhalation was proceeded by six actuations of the nebulizer.

[2] = test system: normal and non-insulin-dependent non-obese diabetic subjects; details: rectal suppository; cited from earlier work
[3] = for Peak Insulin Level: fasting
Excerpt: The timing of each aerosol actuation was controlled by a Rosenthal-French dosimeter and lasted for one second. […] Inspiratory flow rate at the time of aerosol inhalation was regulated to less than 30 and, preferably about 17 liters/minute by rate limiting orifices of the type described above. During inhalation, patients inspired from residual volume to total lung capacity.
After the sixth actuation, aerosol was inhaled from the holding chamber through a mouthpiece. […]
To accomplish this dosing regime, volunteers inhaled 5-13 times from the holding chamber. Each inhalation was preceded by six actuations of the nebulizer.
(§1) Subjects 3, 4 and 6 were medicated with Glyburide 10 mg/day, 15 mg/day, and 5 mg/day, respectively. Subject No. 5 was treated with Diabinese 750 mg/day. Subject No. 7 was medicated with Glyburide 20 mg/day and Subject No. 8 was unmedicated. […] Blood samples were assessed at the time of collection for glucose levels with a glucose meter (Accuchek). Determinations of plasma glucose levels were also obtained from photometric reaction with glucose hexokinase using an Hitachi 736 and 737 chemical analyzer (Boehringer Mannheim Diagnostics). The reference range for fasting adults using this technique and equipment is 3.92-6.44 SI units. […] The expected range of values for normals in the fasting state, as provided by Diagnostics Products Corp., is 18-210 SI units. An IV saline solution was running, 50% glucose was available in case the blood glucose level decreased rapidly, and a diabetologist was present during the study. […] Studies were performed in the Johns Hopkins Outpatient Clinical Research Center. All patients who participated in these experiments gave informed consent to a written description of the study, which was approved by the Institutional Review Board.
When averaging decreases in blood glucose levels the data were normalized in terms of percent change from baseline.

[4] = test system: normal and NIDDM subjects; details: inhaled
Method: as §1

[5] = NIDDM subject 3, 0.21 U/kg BW inhaled
[6] = NIDDM subject 4, 0.23 U/kg BW inhaled
[7] = NIDDM subject 5, 0.21 U/kg BW inhaled
[8] = NIDDM subject 6, 0.20 U/kg BW inhaled
[9] = NIDDM subject 7, 0.20 U/kg BW inhaled
[10] = NIDDM subject 8, 0.20 U/kg BW inhaled
[11] = eight subjects (second dose for subjects 1 and 2), mean dose 0.21 U/kg BW inhaled
[12] = normal subject 1, first dose, 0.09 U/kg BW inhaled
[13] = normal subject 1, second dose, 0.19 U/kg BW inhaled
[14] = normal subject 2, first dose, 0.11 U/kg BW inhaled
[15] = normal subject 2, second dose, 0.21 U/kg BW inhaled

insulin: regular U-500 pork insulin (Eli Lilly) aerosolized by a jet nebulizer; background citations concern insulin given by other routes
Amount of insulin absorbed through the nasal mucosa, relative to dose delivered by intravenous injection (diabetic subjects): approximately 10%
Dose required to lower blood glucose, relative to subcutaneous dose (diabetic subjects): 2.5 times
Local effects after intranasal administration (diabetic subjects): subjects reported nasal irritation and nasal congestion
Required dose relative to intramuscular dose (rabbits): 25-50 times
Time to 10% Decrease in Glucose [1, 5]: 30 min
Time to Lowest Glucose Level [1, 5]: 150 min
Maximum Decrease in Glucose (% of Baseline) [1, 5]: 43%
Glucose level decreased to, after insulin inhalation ([1]; NIDDM subject 3, 0.21 U/kg BW inhaled, baseline 10.58): 6.05 SI units
Time to 10% Decrease in Glucose [1, 6]: 30 min
Time to Lowest Glucose Level [1, 6]: 160 min
Maximum Decrease in Glucose (% of Baseline) [1, 6]: 71%
Glucose level decreased to, after insulin inhalation ([1]; NIDDM subject 4, 0.23 U/kg BW inhaled, baseline 16.58): 4.82 SI units
Time to 10% Decrease in Glucose [1, 7]: 40 min
Time to Lowest Glucose Level [1, 7]: 200 min
Maximum Decrease in Glucose (% of Baseline) [1, 7]: 53%
Glucose level decreased to, after insulin inhalation ([1]; NIDDM subject 5, 0.21 U/kg BW inhaled, baseline 12.12): 5.71 SI units
Time to 10% Decrease in Glucose [1, 8]: 42 min
Time to Lowest Glucose Level [1, 8]: 140 min
Maximum Decrease in Glucose (% of Baseline) [1, 8]: 54%
Glucose level decreased to, after insulin inhalation ([1]; NIDDM subject 6, 0.20 U/kg BW inhaled, baseline 9.27): 4.26 SI units
Time to 10% Decrease in Glucose [1, 9]: 20 min
Time to Lowest Glucose Level [1, 9]: 120 min
Maximum Decrease in Glucose (% of Baseline) [1, 9]: 61%
Glucose level decreased to, after insulin inhalation ([1]; NIDDM subject 7, 0.20 U/kg BW inhaled, baseline 13.94): 5.49 SI units
Time to 10% Decrease in Glucose [1, 10]: 60 min
Time to Lowest Glucose Level [1, 10]: 150 min
Maximum Decrease in Glucose (% of Baseline) [1, 10]: 49%
Glucose level decreased to, after insulin inhalation ([1]; NIDDM subject 8, 0.20 U/kg BW inhaled, baseline 13.30): 6.78 SI units
Mean maximum decrease in glucose from baseline ([1]; NIDDM subjects, 0.2 U/kg BW inhaled): 55±10%
Shift of blood glucose levels to the normal range ([1]; NIDDM subjects, approximately 0.2 U/kg BW aerosolized insulin, normal range 4.20-6.44 SI units): shifted blood glucose levels of five of the six NIDDM subjects to within the normal range
Maximum Decrease in Glucose (% of Baseline), mean ([1]; eight subjects (second dose for subjects 1 and 2), 0.2 U/kg BW inhaled): 52±10% and 52%
Time to 10% Decrease in Glucose, mean [1, 11]: 36 ± 15 min and 36 min
Time to Lowest Glucose Level (time to maximum decrease in blood glucose), mean [1, 11]: 138 ± 46 min and 138 min
Glucose level decreased to, after insulin inhalation ([1]; normal subject 1, 0.09 U/kg BW inhaled, baseline 4.70): 4.09 SI units
Glucose level decreased to, after insulin inhalation ([1]; normal subject 1, 0.19 U/kg BW inhaled, baseline 4.70): 3.08 SI units
Time to 10% Decrease in Glucose [1, 12]: 35 min
Time to Lowest Glucose Level [1, 12]: 80 min
Maximum Decrease in Glucose (% of Baseline) [1, 12]: 13%
Time to 10% Decrease in Glucose [1, 13]: 50 min
Time to Lowest Glucose Level [1, 13]: 140 min
Maximum Decrease in Glucose (% of Baseline) [1, 13]: 34%
Glucose level decreased to, after insulin inhalation ([1]; normal subject 2, 0.11 U/kg BW inhaled, baseline 3.95): 3.14 SI units
Glucose level decreased to, after insulin inhalation ([1]; normal subject 2, 0.21 U/kg BW inhaled, baseline 4.34): 2.24 SI units
Time to 10% Decrease in Glucose [1, 14]: 5 min
Time to Lowest Glucose Level [1, 14]: 40 min
Maximum Decrease in Glucose (% of Baseline) [1, 14]: 20%
Time to 10% Decrease in Glucose [1, 15]: 15 min
Time to Lowest Glucose Level [1, 15]: 40 min
Maximum Decrease in Glucose (% of Baseline) [1, 15]: 48%
Mean maximum decrease in glucose from baseline ([1]; normal subjects, 0.2 U/kg BW inhaled): 41±10%
Effect on blood glucose levels ([1]; normal subjects, approximately 0.2 U/kg BW aerosolized insulin to the mouth): effectively lowered blood glucose levels in the normal subjects
Complaints after rectal administration [2]: some subjects complained of abdominal discomfort or a feeling of rectal urgency
Dose necessary to lower blood glucose significantly, relative to subcutaneous dose [2]: 10 times
Time to Peak Insulin Level [3, 5]: 5 min
log Peak Insulin Level [3, 5]: 2.7694
Peak Insulin Level [3, 5]: 588 SI units
Time to Peak Insulin Level [3, 6]: 15 min
log Peak Insulin Level [3, 6]: 2.2967
Peak Insulin Level [3, 6]: 198 SI units
Time to Peak Insulin Level [3, 7]: 40 min
log Peak Insulin Level [3, 7]: 2.3096
Peak Insulin Level [3, 7]: 204 SI units
Time to Peak Insulin Level [3, 8]: 52 min
log Peak Insulin Level [3, 8]: 2.3909
Peak Insulin Level [3, 8]: 246 SI units
Time to Peak Insulin Level [3, 9]: 25 min
log Peak Insulin Level [3, 9]: 2.0569
Peak Insulin Level [3, 9]: 114 SI units
Time to Peak Insulin Level [3, 10]: 100 min
log Peak Insulin Level [3, 10]: 2.7513
Peak Insulin Level [3, 10]: 564 SI units
Return of blood insulin levels to baseline ([3]; approximately 0.2 U/kg BW inhaled, up to 200 minutes): did not return to baseline by the time the experiment was concluded in seven of the study subjects
Peak Insulin Level, geometric mean [3, 11]: 254 SI units
Time to Peak Insulin Level, mean [3, 11]: 35 min and 35 ± 31 min
log Peak Insulin Level, mean [3, 11]: 2.4055
Insulin absorption across the lung mucosa compared with subcutaneous administration ([3]; inhaled aerosol): more rapid than following subcutaneous administration
Time to Peak Insulin Level [3, 12]: 10 min
log Peak Insulin Level [3, 12]: 2.1399
Peak Insulin Level [3, 12]: 138 SI units
Time to Peak Insulin Level [3, 13]: 35 min
log Peak Insulin Level [3, 13]: 2.3345
Peak Insulin Level [3, 13]: 216 SI units
Time to Peak Insulin Level [3, 14]: 5 min
log Peak Insulin Level [3, 14]: 2.4771
Peak Insulin Level [3, 14]: 300 SI units
Time to Peak Insulin Level [3, 15]: 5 min
log Peak Insulin Level [3, 15]: 2.3345
Peak Insulin Level [3, 15]: 216 SI units
Time at which blood insulin levels peaked post inhalation, range ([3]; range over all subjects and doses): between five and one hundred minutes
Adverse symptoms from the respiratory tract [4]: No adverse symptoms from the respiratory tract were reported or signs observed
Adrenergic, hypoglycemic signs or symptoms ([4]; listed as Aerosolized insulin): lack of any signs or symptoms, including adrenergic symptoms
Tolerability of aerosolized insulin ([4]; listed as Aerosolized insulin): very well tolerated
Tolerability of aerosolized insulin ([4]; listed as aerosolized insulin): well-tolerated
Adrenergic, hypoglycemic signs or symptoms ([4]; listed as insulin aerosol): none of the subjects had adrenergic, hypoglycemic symptoms
Tolerability of aerosolized insulin ([4]; listed as insulin aerosol): well-tolerated
